Source: US11066404B2, “Dihydropyrido[2,3-d]pyrimidinone compounds as CDK2 inhibitors” (Incyte Corporation, priority 2018, dated 2021)

Molecular target: CDK2/Cyclin E1 (Homo sapiens (Human), UniProt P24941)
Test: CDK2/Cyclin E1 HTRF Enzyme Activity Assay
Format: biochemical
Details: 1 mM ATP
Procedure: Example A. CDK2/Cyclin E1 HTRF Enzyme Activity Assay
CDK2/Cyclin E1 enzyme activity assays utilize full-length human CDK2 co-expressed as N-terminal GST-tagged protein with FLAG-Cyclin E1 in a baculovirus expression system (Carna Product Number 04-165). Assays are conducted in white 384-well polystyrene plates in a final reaction volume of 8 μL. CDK2/Cyclin E1 (0.25 nM) is incubated with compounds (40 nL serially diluted in DMSO) in the presence of ATP (50 μM or 1 mM) and 50 nM ULight™-labeled eIF4E-binding protein 1 (THR37/46) peptide (PerkinElmer) in assay buffer (containing 50 mM HEPES pH 7.5, 1 mM EGTA, 10 mM MgCl2, 2 mM DTT, 0.05 mg/ml BSA, and 0.01% Tween 20) for 60 minutes at room temperature. The reactions are stopped by the addition of EDTA and Europium-labeled anti-phospho-4E-BP 1 antibody (PerkinElmer), for a final concentration of 15 mM and 1.5 nM, respectively. HTRF signals are read after 1 hour at room temperature on a PHERAstar FS plate reader (BMG Labtech). Data is analyzed with IDBS XLFit and GraphPad Prism 5.0 software using a three or four parameter dose response curve to determine IC50 for each compound.

Compound	IC50
CC1(C)Cc2cnc(NC3CCN(S(C)(=O)=O)CC3)nc2N(C2CCCC2)C1=O [Example 2, 8-cyclopentyl-6,6-dimethyl-2-((1-(methylsulfonyl)piperidin-4-yl)amino)-5,8-dihydropyrido[2,3-d]pyrimidin-7(6H)-one]	≤ 10 nM
CC1(C)Cc2cnc(Nc3ccc(S(N)(=O)=O)cc3)nc2N(C2CCCC2)C1=O [Example 1, 4-((8-cyclopentyl-6,6-dimethyl-7-oxo-5,6,7,8-tetrahydropyrido[2,3-d]pyrimidin-2-yl)amino)benzenesulfonamide]	≤ 10 nM
CCC(C(F)F)N1C(=O)C(C)(C)Cc2cnc(NC3CCN(S(C)(=O)=O)CC3)nc21 (racemic) [Example 4, 8-(1,1-difluorobutan-2-yl)-6,6-dimethyl-2-((1-(methylsulfonyl)piperidin-4-yl)amino)-5,8-dihydropyrido[2,3-d]pyrimidin-7(6H)-one]	10 to 100 nM
CC1(C)Cc2cnc(NC3CCN(S(C)(=O)=O)CC3)nc2N(c2ccccc2)C1=O [Example 3, 6,6-dimethyl-2-((1-(methylsulfonyl)piperidin-4-yl)amino)-8-phenyl-5,8-dihydropyrido[2,3-d]pyrimidin-7(6H)-one]	100 to 500 nM

Results, then the compound that gave them:

IC50	Compound
100 to 500 nM	Cn1nccc1CN1C(=O)C(C)(C)Cc2cnc(NC3CCN(S(C)(=O)=O)CC3)nc21 [Example 5, 6,6-dimethyl-8-((1-methyl-1H-pyrazol-5-yl)methyl)-2-((1-(methylsulfonyl)piperidin-4-yl)amino)-5,8-dihydropyrido[2,3-d]pyrimidin-7(6H)-one]
100 to 500 nM	CC1(C)Cc2cnc(NC3CCN(S(C)(=O)=O)CC3)nc2N(C2CCOC2)C1=O (racemic) [Example 6, 6,6-dimethyl-2-((1-(methylsulfonyl)piperidin-4-yl)amino)-8-(tetrahydrofuran-3-yl)-5,8-dihydropyrido[2,3-d]pyrimidin-7(6H)-one]
